Like-named read-outs stand apart in the source and are kept apart here.
Tests used:
[1] = test system: autophagy (LC3B-II, SQSTM1/p62) in MIA PaCa-2 cells; assay: Autophagy inhibition (immunoblot, LC3B-GFP imaging, TEM); assay type: cell-based, human; settings: western blotting, compared to untreated and Lys05-treated cells
Procedure: LC3B-GFP imaging. Cells in a 96-well plate (5,000 cell per well) were transfected by the autophagy sensor LC3B-GFP (Thermo Fisher) for 12 h. After treated as indicated for 4 h, cells were visualized by a fluorescence microscope (Olympus). The puncta per well were quantified using ImageJ 1.51s.
Western Blot. The cell or tumour samples were lysed with RIPA Buffer (Thermo Fisher). After centrifugation at 4° C. (15 min, 12,000×g), the concentrations of proteins in supernatant and determined by Bradford Protein Assay dye (Bio-Rad). Immunoblotting was performed routinely and were developed using a ChemiDoc™ MP imaging system.
TEM of cells and tumour tissue. MIA PaCa-2 cells in 8-well slide plates (30,000 cell per well, Lab-Tek) were treated as indicated for 48 h. The freshly harvested tumours were cut into 1 mm^3 pieces. Samples were fixed with the 0.1 M cacodylate buffer containing 2.5% glutaraldehyde plus 2% paraformaldehyde, and transferred onto carbon square mesh, followed by observation under Talos L120C TEM.

[2] = Drug loading using BAQ13 NPs; assay type: physicochemical; settings: for PDI / Size/diameter: BAQ13 NPs loaded with the drug or dye; for Encapsulation efficiency / Drug-loading content: drug or dye loaded in BAQ13 NPs; for Drug-loading content: mass ratio
Procedure: Preparation and characterization of BAQ ONNs. NPs were prepared through the re-precipitation method. BAQ derivatives in methanol were added dropwise into MilliQ water while stirring for 5 min (volume ratio, 1:10), and then homogenous NPs were obtained after rotary evaporation (40° C., 20 min), followed by the characterization with Zetasizer Nano ZS (Malvern). The TEM samples were prepared by dropping 0.5 mM NPs on carbon square mesh and dried naturally, which were then observed under the Talos L120C TEM (FEI) at an accelerating voltage of 80 kV. To determine the drug content in nanoformulations, the prepared drug-loaded NPs were cut off by centrifugal filter (ultracel-10 kDa, Millipore), and the absorbance of filtrate (diluted with DMSO, 1:10, volume ratio) was measured for calculation of drug concentrations.
Next investigation was whether liposome-like BAQ ONNs can encapsulate additional agents. Upon nanoprecipitation of BAQ13 and various agents, homogeneous NPs with monomodal size distributions spontaneously formed (Table 2 and FIG. 9G).

PCSC tumours = assay: PCSC xenograft model; assay type: in vivo, NRG mice; settings: combination therapy study, every three days
Description: (§1) In vivo treatment schedule.

HT29 tumours [3] = assay: HT29 xenograft model; settings: mice bearing HT29 tumours, treatment terminated on the 24th day
Procedure: Animal model. To establish the subcutaneous xenograft models, 5×10^6 of MIA PaCa-2 cells, 2×10^6 of HT29 cells or 2×10^4 PCSCs suspended with Matrigel (Corning) and PBS mixture (1:1, volume ratio) were injected subcutaneously into the right flank of nude mice or NRG mice, respectively.
In vivo treatment schedule. The NRG mice bearing MIA PaCa-2 xenograft tumours (˜100 mm^3) were randomized into 5 groups (n=6), and then were subjected to iv injection every three days as indicated. […] The treatment on HT29 model was stopped on Day 24, and then the mice survival in each group was recorded, in which the mouse with a tumour larger than 1,000 mm^3 was considered dead. […] The tumour volume and body weight were recorded before drug administration every time. At the end of the treatment, mice were sacrificed and the tumours were collected for further analysis.

Bone marrow cells = assay: MTS cell viability assay; assay type: cell-based, FVB/N mice; settings: 48 h, non-cancerous cells; read-out: IC50 values from the 48 h MTS assay (μM) Bone marrow
Procedure: (§2) Cell line and cell culture. The human pancreatic cancer cell lines (MIA PaCa-2, BXPC3, and PANC-1) were originally purchased from ATCC and were kindly provided by Dr. Shiro Urayama's Lab. HT29, HCT116, H460, MCF7, NIH/3T3, and IMR-90 cell lines were purchased from ATCC. Bone marrow cells were collected from the leg bone marrows of FVB/N mice. All the cells were cultured at 37° C. in a humidified atmosphere of 5% CO2/95% air using the corresponding medium supplemented with 10% fetal bovine serum, […] according to ATCC protocol. All the cell lines have been tested for mycoplasma contamination routinely.
Cell viability, cell growth and colony formation. Cell viability was assessed by the MTS assay. Briefly, cells in 96-well plates (4,000 cell per well) were treated as indicated, followed by the incubation with MTS regents for 4 h. OD values (490 nm) were determined via a microplate reader. Results were shown as the average cell viability calculated from the formula of [(ODtreat−ODblank)/(ODcontrol−ODblank)×100%]. Drug combination data were analyzed by Combenefit 2.02. In cell growth assay, cells in 6-well plates (50,000 cell per well) were treated as indicated and were counted manually every 24 h. Colony formation assay was also performed on 6-well plates with a starting density of 1,000-2,000 cells per well. […]

Red blood cells = assay: pH-dependent haemolysis test; assay type: cell-based; settings: whole pH range, same concentration (50 μM, 4 h)
Procedure: After centrifugation at 500×g for 5 min, the extent of haemolysis was spectrophotometrically determined according to the amount of haemoglobin in supernatants (540 nm). The haemolysis assay was used to assess the pH-dependent detergence ability and toxicity of NPs.

BXPC-3 = assay: MTS cell viability assay; assay type: cell-based, human
Procedure: as §2
(§3) Cell viability, cell growth and colony formation. Cell viability was assessed by the MTS assay. Briefly, cells in 96-well plates (4,000 cell per well) were treated as indicated, followed by the incubation with MTS regents for 4 h. OD values (490 nm) were determined via a microplate reader. Results were shown as the average cell viability calculated from the formula of [(ODtreat−ODblank)/(ODcontrol−ODblank)×100%]. Drug combination data were analyzed by Combenefit 2.02. In cell growth assay, cells in 6-well plates (50,000 cell per well) were treated as indicated and were counted manually every 24 h. Colony formation assay was also performed on 6-well plates with a starting density of 1,000-2,000 cells per well. After incubated as indicated for 10-20 days, cells were washed with PBS and stained with the solution of crystal violet and methanol for 20 min.

MIA PaCa-2 = assay: MTS cell viability assay; assay type: cell-based, human; settings: 24 h; read-out: IC50 (μM) in the 24 h treatment MIA PaCa-2
Procedure: as §2, §3

PANC-1 = assay: MTS cell viability assay; assay type: cell-based, human
Procedure: as §2, §3

MCF-7 = assay: MTS cell viability assay; assay type: cell-based; settings: 24 h; read-out: IC50 (μM) in the 24 h treatment MCF-7
Procedure: as §2, §3

H460 = assay: MTS cell viability assay; assay type: cell-based; settings: 24 h; read-out: IC50 (μM) in the 24 h treatment H460
Procedure: as §2, §3

IMR-90 = assay: MTS cell viability assay; assay type: cell-based; settings: 48 h, non-cancerous cells; read-out: IC50 values from the 48 h MTS assay (μM) IMR-90
Procedure: as §2, §3

HCT116 = assay: MTS cell viability assay; assay type: cell-based; settings: 48 h; read-out: IC50 values from the 48 h MTS assay (μM) HCT116
Procedure: as §2, §3

HT29 = assay: MTS cell viability assay; assay type: cell-based; settings: 24 h; read-out: IC50 (μM) in the 24 h treatment HT29
Procedure: as §2, §3

NIH/3T3 = assay: MTS cell viability assay; assay type: cell-based; settings: 48 h, non-cancerous cells; read-out: IC50 values from the 48 h MTS assay (μM) NIH/3T3
Procedure: as §2, §3

[4] = Titration with hydrochloric acid (pH buffering capacity); assay type: physicochemical; settings: 1 mM, 0.1 M HCl
In vivo toxicity studies = assay: In vivo toxicity studies; parameters: species or system FVB/N mice; settings: 10 mg kg^−1, iv
Procedure: In vivo toxicity studies. The toxicity of BAQ NPs was investigated on female FVB/N mice via iv injection. Mice were administrated with various concentrations (10 mg kg^−1, 20 mg kg^−1 or 40 mg kg^−1) of Lys05, Liposomes@Lys05, BAQ12 NPs, and BAQ13 NPs every two days. The status of mice was monitored every day and their body weight was recorded every two days. Blood samples were collected and sent to the UCD Comparative Pathology Laboratory for tests of complete blood count (CBC) and serum chemistry.

MIA PaCa-2 cells = assay: RNA sequencing, differentially expressed genes; assay type: cell-based, human; settings: 5 μM, 24 h, vs vehicle
Procedure: RNA-seq. Total RNA was extracted by the RNeasy Mini Kit (Qiagen, Germany) from the treated MIA PaCa-2 cells (5 μM, 24 h). Samples were submitted to the UC Davis Comprehensive Cancer Center's Genomics Shared Resource (GSR) for RNA-Seq analysis. Stranded RNA-Seq libraries were prepared from 100 ng total RNA using the NEBNext Ultra Directional RNA Library Prep Kit (New England BioLabs). Subsequently, libraries were combined for multiplex sequencing on an Illumina HiSeq 4000 System (2×150 bp, paired-end, >20×10^6 reads per sample). The data of normalized genes read counts were analyzed using fold change and t test. The Differentially expressed genes (DEGs) were collected for the signaling pathways enrichment by Funrich software 3.1.3. The gene sets were from MSigDB database (Broad Institute). GSEA was performed using GSEA version 3.0 in KEGG gene sets category online, with the following parameters: n=1,000 permutations, where p-adjust <0.05, and FDR <0.05 were considered significant.

MIA PaCa-2 tumours = assay: MIA PaCa-2 xenograft model; assay type: in vivo, NRG mice; settings: 20 mg kg^−1 every three days
Procedure: as §1
Antitumour effect as single agents in mice. After proving the safety of BAQ ONNs, the NPs for anticancer efficacy was evaluated in a pancreatic xenograft model of MIA PaCa-2 cells. NRG mice with MIA PaCa-2 tumours (˜100 mm^3) were randomly assigned into five groups (n=6): the saline (iv) group, the Lys05 (ip) group, the liposomes@Lys05 (iv) group, the BAQ12 NPs (iv) group and the BAQ13 NPs (iv) group. The mice were then treated every three days at a dose of 20 mg kg^−1. […] These findings clearly illustrate the potential advantages of BAQ ONNs with regard to both drug discovery and drug delivery.

OSC-3 cells = assay: PBC NPs in OSC-3 cells (lysosomes, apoptosis, photodynamic therapy); assay type: cell-based; settings: LC3-GFP-RFP imaging and immunoblotting
[5] = In vivo pharmacokinetic study; parameters: species or system Sprague-Dawley rats; settings: rats, iv, DiD 0.5 mg kg^−1, plasma DiD fluorescence
Procedure: In vivo pharmacokinetic study. The jugular vein of female Sprague-Dawley rats (200-250 g) was implanted with a catheter for drug injection and blood collection (Harland, Indianapolis, IN, USA). Rats (n=3) were injected with free DiD, BAQ12 NPs@DiD (10:1, mass ratio) and BAQ13 NPs@DiD (10:1, mass ratio), respectively, which contained an equivalent dose of DiD (0.5 mg kg^−1). Blood samples were collected at the indicated time points and then were centrifuged to obtain the plasma. The plasma was diluted with DMSO (1:100), and the fluorescence intensity (λEx=595 nm, λEm=665 nm) was measured by a microplate reader (SpectraMax M2).

HT29 tumours [6] = assay: In/ex vivo biodistribution, HT29 model; parameters: species or system nude mice; settings: in vivo and ex vivo imaging, 12 h and 24 h post-injection
Procedure: In/ex vivo biodistribution. Nude mice bearing the HT29 tumours were subjected to iv administration of BAQ13 NPs@DiD (10:1, mass ratio) at a dose of 1.0 mg kg^−1 DiD. In vivo imaging studies were performed at the corresponding time point. Organs (brain, heart, lung, liver, spleen, kidney, intestines, and muscle) and tumours were collected from mice for ex vivo imaging. Biodistribution of BAQ13 NPs@ NAPA+DiD (10/2.5/1.0 mg kg^−1, iv) was studied on NRG mice bearing PCSC tumours. Both in vivo and ex vivo imaging studies were performed as above.

Compound: CO/C1=C\C(C)=C\[C@@H](C)[C@@H](O)[C@@H](C)C/C(C)=C/C=C/[C@H](OC)[C@@H]([C@@H](C)[C@@H](O)[C@H](C)[C@@]2(O)C[C@@H](O)[C@H](C)[C@@H](C(C)C)O2)OC1=O [bafilomycin A1]
- LC3B-II and SQSTM1/p62 protein levels [1]: Such increases were also observed

Compound: CC(=O)c1cc2c(o1)C(=O)c1ccccc1C2=O [Napabucasin]
- PDI [2]: 0.101
- Size/diameter [2]: 110 nm
- Encapsulation efficiency [2]: 85%
- Drug-loading content [2]: 20%
- tumour growth (PCSC tumours): no antitumour effect

Compound: CN(CCNc1ccnc2cc(Cl)ccc12)CCNc1ccnc2cc(Cl)ccc12 [Lys05]
- Median Survival (HT29 tumours [3]): 28 days
- IC50 (Bone marrow cells): 14 ± 1.1 µM
- haemolytic response to pH (Red blood cells): did not elicit observable haemolysis
- IC50 (BXPC-3; 24 h, read-out: IC50 (μM) in the 24 h treatment BXPC-3): 7.8 ± 0.9 µM
- IC50 (BXPC-3; 48 h, read-out: IC50 values from the 48 h MTS assay (μM) BXPC-3): 11.1 ± 1.7 µM
- IC50 (MIA PaCa-2): 16.7 ± 4.7 µM
- IC50 (PANC-1; 24 h, read-out: IC50 (μM) in the 24 h treatment PANC-1): 13.3 ± 2 µM
- IC50 (PANC-1; 48 h, read-out: IC50 values from the 48 h MTS assay (μM) PANC-1): 10.8 ± 0.9 µM
- IC50 (MCF-7): 12.3 ± 0.7 µM
- IC50 (H460): 11.1 ± 0.6 µM
- IC50 (IMR-90): 15.5 ± 2.5 µM
- IC50 (HCT116): 8 ± 0.7 µM
- IC50 (HT29): 10.6 ± 3.4 µM
- IC50 (NIH/3T3): 12.6 ± 0.9 µM
- pH plateau upon titration with HCl [4]: 7.2
- mortality after iv administration (In vivo toxicity studies): acute death of mice
- downregulated genes (MIA PaCa-2 cells): 103
- upregulated genes (MIA PaCa-2 cells): 62
- differentially expressed genes (DEGs) (MIA PaCa-2 cells; fold change≥2 and p value≤0.05): 165
- tumour growth (MIA PaCa-2 tumours): did not display a therapeutic effect

Compound: pheophorbide a
- induction of autophagy (OSC-3 cells): induced autophagy

Compound: CCCCCCCCCCCCCCCCCCN1C(=CC=CC=CC2=[N+](CCCCCCCCCCCCCCCCCC)c3ccccc3C2(C)C)C(C)(C)c2ccccc21.[O-][Cl+3]([O-])([O-])[O-] [Free DiD, 1,1′-dioctadecyl-3,3,3′,3′-tetramethylindodicarbocyanine perchlorate]
- PDI [2]: 0.1
- Size/diameter [2]: 120 nm
- Encapsulation efficiency [2]: 100%
- Drug-loading content [2]: 50%
- T1/2 [5]: 48 min
- biodistribution of fluorescence signals (HT29 tumours [6]): high signals in the lungs, rather than in the tumour sites
